# Values quoted from earlier work as cited in patent publication US20150157647A1, “METHODS AND CO[…] TO ACUTE RESPIRATORY DISTRESS SYNDROME” (priority 2013, published 2015).
# Tests used:
# [1] = system: endothelial monolayers obtained from rat lung; conditions: interferes with function of adherence proteins
# [2] = system: rodent brain contusion model; conditions: given 1 hour after the insult
# [3] = system: animal models of preeclampsia
Compound,Effect on vascular permeability [1],In vitro vascular action,Effect on tissue injury [2],Effect on preeclampsia [3]
"C[C@]12CC[C@H](O)C[C@@]1(O)CC[C@@H]1[C@@H]2CC[C@]2(C)[C@@H](c3ccc(=O)oc3)C[C@H]3O[C@]132 [MBG, marinobufagenin]",causes vascular “leak”,vasoconstrictor,,
"C[C@]12CC[C@H](O)C[C@H]1CC[C@@H]1[C@@H]2CC[C@]2(C)[C@@H](c3ccc(=O)oc3)C[C@H]3O[C@]132 [RBG, epoxy-3β-hydroxy-5β-bufa-20,22-dienolide]",,,amelioration of tissue injury,prevents preeclampsia
